Results as given in the supplement of paper PMC10307832.

What was measured:
Test in all cases: relative viability (nuclei count vs DMSO), 5 days (fraction); higher = more cells survive
Pictilisib + Bortezomib = compound: CS(=O)(=O)N1CCN(Cc2cc3nc(-c4cccc5[nH]ncc45)nc(N4CCOCC4)c3s2)CC1 [Pictilisib] + CC(C)C[C@H](NC(=O)[C@H](Cc1ccccc1)NC(=O)c1cnccn1)B(O)O [Bortezomib] (partner 0.002 µM)
Method in brief: (§1)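 Lung cancer cell lines in 1536-well plates got either a single drug or a fixed anchor-drug dose together with five library-drug doses (not always all listed) in √10 steps, by pin tool, on the day after seeding. Nuclei were counted after 5 days, and relative viability is the treated-to-vehicle ratio of nuclei counts. Values are medians of duplicate plates.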

Pictilisib + OSI-027 = compound: CS(=O)(=O)N1CCN(Cc2cc3nc(-c4cccc5[nH]ncc45)nc(N4CCOCC4)c3s2)CC1 [Pictilisib] + COc1cccc2cc(-c3nc([C@H]4CC[C@H](C(=O)O)CC4)n4ncnc(N)c34)[nH]c12 [OSI-027] (partner 0.5 µM)
Method in brief: as §1

MK-2206 + Navitoclax = compound: NC1(c2ccc(-c3nc4ccn5c(=O)[nH]nc5c4cc3-c3ccccc3)cc2)CCC1 [MK-2206] + CC1(C)CCC(c2ccc(Cl)cc2)=C(CN2CCN(c3ccc(C(=O)NS(=O)(=O)c4ccc(N[C@H](CCN5CCOCC5)CSc5ccccc5)c(S(=O)(=O)C(F)(F)F)c4)cc3)CC2)C1 [Navitoclax] (partner 0.5 µM)
Method in brief: as §1

MK-2206 + Pictilisib = compound: NC1(c2ccc(-c3nc4ccn5c(=O)[nH]nc5c4cc3-c3ccccc3)cc2)CCC1 [MK-2206] + CS(=O)(=O)N1CCN(Cc2cc3nc(-c4cccc5[nH]ncc45)nc(N4CCOCC4)c3s2)CC1 [Pictilisib] (partner 1 µM)
Method in brief: as §1

MK-2206 + Linsitinib = compound: NC1(c2ccc(-c3nc4ccn5c(=O)[nH]nc5c4cc3-c3ccccc3)cc2)CCC1 [MK-2206] + C[C@]1(O)C[C@@H](c2nc(-c3ccc4ccc(-c5ccccc5)nc4c3)c3c(N)nccn32)C1 [Linsitinib] (partner 1 µM)
Method in brief: as §1

Cell Line	relative viability (Pictilisib + Bortezomib; first compound 0.02 µM)	relative viability (Pictilisib + Bortezomib; first compound 0.06325 µM)	relative viability (Pictilisib + Bortezomib; first compound 0.6325 µM)	relative viability (Pictilisib + Bortezomib; first compound 2 µM)	relative viability (Pictilisib + OSI-027; first compound 0.02 µM)	relative viability (Pictilisib + OSI-027; first compound 0.06325 µM)	relative viability (Pictilisib + OSI-027; first compound 0.6325 µM)	relative viability (Pictilisib + OSI-027; first compound 2 µM)	relative viability (MK-2206 + Navitoclax; first compound 0.01 µM)	relative viability (MK-2206 + Navitoclax; first compound 0.03162 µM)	relative viability (MK-2206 + Navitoclax; first compound 0.3162 µM)	relative viability (MK-2206 + Navitoclax; first compound 1 µM)	relative viability (MK-2206 + Pictilisib; first compound 0.01 µM)	relative viability (MK-2206 + Pictilisib; first compound 0.03162 µM)	relative viability (MK-2206 + Pictilisib; first compound 0.3162 µM)	relative viability (MK-2206 + Pictilisib; first compound 1 µM)	relative viability (MK-2206 + Linsitinib; first compound 0.01 µM)	relative viability (MK-2206 + Linsitinib; first compound 0.03162 µM)	relative viability (MK-2206 + Linsitinib; first compound 0.3162 µM)	relative viability (MK-2206 + Linsitinib; first compound 1 µM)
NCI-H441	0.702	0.373	0.41	0.338	0.486	0.552	0.38	0.307	0.77	0.639	0.6	0.505	0.501	0.467	0.424	0.48	0.674	0.579	0.435	0.415
NCI-H520	0.632	0.464	0.291	0.156	0.239	0.332	0.156	0.171	1.11	1.09	0.701	0.489	0.275	0.228	0.276	0.223	1.13	0.933	0.52	0.542
CAL-12T	1.13	1.15	0.816	0.527	0.8	0.642	0.339	0.167	0.963	1.32	1.22	1.14	0.58	0.455	0.465	0.229	0.742	0.877	0.761	0.739
HCC-827	1.03	1.03	1.14	1.03	0.824	0.696	0.338	0.192	1.06	1.12	1.04	1.01	0.982	1.11	0.899	1.01	1.01	0.989	0.982	0.914
LC-2-ad	1.05	1	0.633	0.56	0.881	0.781	0.475	0.396	0.423	0.506	0.288	0.3	0.452	0.63	0.502	0.352	0.813	0.843	0.909	0.781
NCI-H2170	–	–	–	–	0.776	0.711	0.642	0.418	0.65	0.485	0.546	0.512	0.367	0.363	0.309	0.262	–	–	–	–
SW 1573	0.822	1.08	0.775	0.333	0.615	0.584	0.362	0.237	0.876	0.937	0.714	0.737	0.453	0.548	0.424	0.457	0.751	0.824	0.665	0.592
SK-MES-1	–	–	–	–	0.596	0.566	0.334	0.215	1.29	1.2	1.01	1.1	0.37	0.34	0.354	0.352	1.03	1.1	1.05	1.06
NCI-H1648	–	–	–	–	0.256	0.248	0.275	0.266	–	–	–	–	–	–	–	–	–	–	–	–
NCI-H1793	–	–	–	–	0.255	0.236	0.185	0.149	0.521	0.475	0.352	0.463	0.323	0.31	0.307	0.284	0.81	0.886	0.641	0.675
NCI-H1299	1.02	1.04	1.07	1.05	–	–	–	–	1.09	1.05	1.06	1.05	0.832	0.728	0.744	0.769	0.947	1.08	0.977	0.965
LCLC-97TM1	0.807	0.998	0.374	0.184	0.4	0.488	0.301	0.253	0.522	0.499	0.404	0.361	0.231	0.259	0.131	0.164	0.219	0.171	0.177	0.174
NCI-H1915	0.981	1.03	0.606	0.9	0.618	0.616	0.639	0.533	0.813	0.83	0.835	0.784	0.866	1.1	0.88	0.947	1.12	1.07	1.04	1.09
NCI-H661	0.771	0.738	0.616	0.258	0.687	0.682	0.499	0.261	–	–	–	–	0.431	0.422	0.511	0.312	0.583	0.725	0.665	0.541
NCI-H2405	1.03	0.961	0.919	0.651	0.548	0.569	0.486	0.278	0.838	1.06	0.83	0.779	0.418	0.421	0.361	0.282	0.878	1.09	0.878	0.71
NCI-H2347	1.05	1.12	0.938	0.567	0.458	0.213	0.286	0.217	0.752	0.883	0.684	0.883	0.384	0.67	0.634	0.652	0.906	1	0.848	0.952
NCI-H1651	0.948	0.939	0.911	0.707	0.643	0.584	0.565	0.291	0.994	1.05	1.02	0.998	0.672	0.655	0.632	0.408	0.906	0.915	0.874	0.937
